Series [1] deals with T1, WASF3 complex (Homo sapiens).
T1 construct: endogenous in cells; host or cells: MDA-MB-231
Put plainly: IP of WASF3 complex after WANT3 or WAHM1 (phosphoactivation, RAC1 engagement). Format: cell-based. The following applies: MDA-MB-231 cells. The text has this:
(§1) MDA-MB-231, Hs578T and T47D breast cancer cell lines were obtained directly from American Type Culture Collection (Rockville, Md.). MDA-MB-231 and T47D and have been verified using SNP-CGH (Teng Y, et al. Int J Cancer 2011 129:2825-2835) for characteristic cytogenetic changes. The ATCC Cell Authentication Testing service confirmed the identity of Hs578T using STR DNA fingerprinting analysis. Standard cell culture, transient transfections, RT-PCR, western blotting, immunoprecipitation (IP), flow cytometry, Biotin-Avidin pulldown, lentiviral transduction, cell proliferation and Transwell invasion assays were carried out as described previously (Teng Y, et al. Int J Cancer 2011 129:2825-2835; Teng Y, et al. J Biol Chem 2012 287:10051-10059; Teng Y, et al. Carcinogenesis 2013 34:1994-1999).

Series [2] has as its system MDA-MB-231 cells. Conditions: 37° C., after 7 days. How it is done: To evaluate the stability of these SPs, WANT3 was incubated in serum containing medium for varying lengths of time (1-7 days) at 37° C. and then this medium was added to MDA-MB-231 cells to evaluate the ability of the preincubated peptides to suppress invasion.
The test system of series [3] is MDA-MB-231 cells. The series can be described thus: Transwell invasion assay (WANT peptides). Format: cell-based. The text has this: There are currently no small molecules that target WASF3 function directly, but targeting the WRC may provide a means of suppressing invasion.
Series [4] concerns MDA-MB-231 and Hs578T cells. The series can be described thus: Cell proliferation, viability and toxicity with WANT3. The class given is cell-based.
Text: as §1

In a further series the test system is WASF3. Put plainly: Western blot of WASF3 stability after WANT3. Format: cell-based.
Text: as §1
In general terms: Immunoblotting shows a protein as a band on a membrane.

The test system of a further series is NCKAP1. Put plainly: Western blot of NCKAP1 protein after WANT3. Format: cell-based. The following applies: 10 μM.
Text: as §1

The mark [5] stands for this setting: concentration range of 2.5-20 μM.

“Also recorded” adds a separate entry of the source. Bridges are numbered along the chain shown (N, C = ends). Where no end group is shown, it is not given here. [ ]: non-standard residue; d: D form. S5 = C=CCCC[C@](C)(N)C(=O)O

T1 sequence (Q7L576 whole entry, one chain of several): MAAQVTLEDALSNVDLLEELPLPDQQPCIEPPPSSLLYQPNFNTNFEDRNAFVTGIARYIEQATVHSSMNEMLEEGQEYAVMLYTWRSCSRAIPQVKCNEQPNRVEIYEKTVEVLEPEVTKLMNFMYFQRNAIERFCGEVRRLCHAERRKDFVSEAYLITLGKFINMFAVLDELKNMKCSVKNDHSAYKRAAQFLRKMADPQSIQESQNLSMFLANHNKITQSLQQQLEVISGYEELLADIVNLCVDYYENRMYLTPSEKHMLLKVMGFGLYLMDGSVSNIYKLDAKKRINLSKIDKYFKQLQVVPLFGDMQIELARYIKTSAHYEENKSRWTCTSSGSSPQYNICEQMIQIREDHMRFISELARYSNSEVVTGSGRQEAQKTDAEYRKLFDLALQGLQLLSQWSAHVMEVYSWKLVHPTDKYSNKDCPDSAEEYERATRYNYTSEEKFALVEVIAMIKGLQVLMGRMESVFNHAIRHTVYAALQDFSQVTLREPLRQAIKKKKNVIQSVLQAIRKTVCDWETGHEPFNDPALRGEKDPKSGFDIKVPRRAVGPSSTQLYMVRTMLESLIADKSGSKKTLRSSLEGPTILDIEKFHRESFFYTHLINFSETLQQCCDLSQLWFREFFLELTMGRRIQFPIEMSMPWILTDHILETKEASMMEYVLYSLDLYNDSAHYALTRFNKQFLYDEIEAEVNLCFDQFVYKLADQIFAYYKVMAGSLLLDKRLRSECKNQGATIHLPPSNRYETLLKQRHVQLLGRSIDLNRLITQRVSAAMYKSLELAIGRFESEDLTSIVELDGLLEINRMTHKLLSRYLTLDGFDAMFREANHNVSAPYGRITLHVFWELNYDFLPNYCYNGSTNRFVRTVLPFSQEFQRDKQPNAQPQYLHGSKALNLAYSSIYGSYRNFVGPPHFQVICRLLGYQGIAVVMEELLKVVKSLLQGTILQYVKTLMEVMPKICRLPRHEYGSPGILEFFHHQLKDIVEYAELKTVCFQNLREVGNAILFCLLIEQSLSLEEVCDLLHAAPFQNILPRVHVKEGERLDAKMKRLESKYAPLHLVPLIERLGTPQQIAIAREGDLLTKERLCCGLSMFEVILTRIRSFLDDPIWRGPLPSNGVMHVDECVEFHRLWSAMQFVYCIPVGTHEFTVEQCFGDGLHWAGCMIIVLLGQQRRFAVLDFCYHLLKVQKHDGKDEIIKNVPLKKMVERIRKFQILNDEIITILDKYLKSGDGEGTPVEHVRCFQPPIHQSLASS

Take “VLXRNAXHAVYK (VL[S5]RNA[S5]HAVYK-NH2; staple 3-7; not fully specified (N-terminus); also: FITC label (in alias), site not given here) [WANT3, WASF3-NCKAP1 Target stapled peptide, NCKAP1 peptide mimic; X is (S)-2-(4′-pentenyl)alanine]”: in series [1], the “engagement of RAC1 with the WASF3 complex, WANT3 compared with WHAM1” value is “more significant” and the “phosphoactivation of WASF3, WANT3 compared with WAHM1” value is “more significantly”. In addition, in the series with MDA-MB-231 cells [2], the “suppression of invasion after preincubation in serum-containing medium” value is “residual effect on suppression of invasion”. Besides, the “suppression of invasion, WAHM1 compared with WANT3” value in the series with MDA-MB-231 cells [3] is recorded as “comparable suppression of invasion”. The invasion potential result in the series on MDA-MB-231 cells [3] (final concentration of 10 μM) was “highly significant suppression of invasion; also recorded: significantly suppresses”. Also, the “invasion at increased concentration” value with MDA-MB-231 cells [3] (high dose 20 μM compared with low dose) is “greater suppression of invasion; also recorded: more remarkable reduction”. For the same sequence, in series [4] (10 μM), the cell proliferation entry is on record as “without affecting cell proliferation” and the “in vitro cell toxicity” value was “minimal”. In series [4] (setting [5]), the cell proliferation rate result is on record as “does not affect” and the viability entry is reported as “does not affect”. In the series with WASF3, the “concentration achieving maximal effect on WASF3 stability” value turned out to be 20 µM. Further, in the series with WASF3 (10 μM, compared with scrambled peptide), the “WASF3 stability / protein levels” value is “significant destabilization of WASF3; also recorded: suppresses both WASF3 and NCKAP1 protein levels”. Moreover, in the series with WASF3 (MDA-MB-231 cells), the “destabilization of WASF3, WANT3 compared with WHAM1” value is on record as “more efficient in destabilizing WASF3” and the “dose dependence of WASF3 destabilization” value is listed as “suppresses WASF3 protein levels in a dose-dependent manner; also recorded: dose-dependent destabilization of the WASF3 protein”. Moreover, in the series with NCKAP1, the NCKAP1 protein levels entry was “loss of the NCKAP1 protein; also recorded: suppresses both WASF3 and NCKAP1 protein levels”.

Source of the values: patent US11773146B2, “Disruption of the WAVE3 protein complex for suppression of invasion and metastasis” (UNIVERSITY OF GEORGIA RESEARCH FOUNDATION, INC., priority 2015, dated 2023).
